Measurements reported in US11739098B2 (BRISTOL-MYERS SQUIBB COMPANY, priority 2017, dated 2023).

Key:
Format in all cases: cell-based
human TLR7 = molecular target: T1, human TLR7 (Homo sapiens, UniProt Q9NYK1); assay: TLR7 inhibition reporter assay (HEK-Blue cells, SEAP reporter, gardiquimod stimulation); conditions: HEK-Blue cells overexpressing human TLR7, SEAP reporter, gardiquimod 7.5 μM
T1 construct: host or cells: HEK-Blue cells (HEK293-derived reporter line)
T1 sequence (Q9NYK1 27-1049): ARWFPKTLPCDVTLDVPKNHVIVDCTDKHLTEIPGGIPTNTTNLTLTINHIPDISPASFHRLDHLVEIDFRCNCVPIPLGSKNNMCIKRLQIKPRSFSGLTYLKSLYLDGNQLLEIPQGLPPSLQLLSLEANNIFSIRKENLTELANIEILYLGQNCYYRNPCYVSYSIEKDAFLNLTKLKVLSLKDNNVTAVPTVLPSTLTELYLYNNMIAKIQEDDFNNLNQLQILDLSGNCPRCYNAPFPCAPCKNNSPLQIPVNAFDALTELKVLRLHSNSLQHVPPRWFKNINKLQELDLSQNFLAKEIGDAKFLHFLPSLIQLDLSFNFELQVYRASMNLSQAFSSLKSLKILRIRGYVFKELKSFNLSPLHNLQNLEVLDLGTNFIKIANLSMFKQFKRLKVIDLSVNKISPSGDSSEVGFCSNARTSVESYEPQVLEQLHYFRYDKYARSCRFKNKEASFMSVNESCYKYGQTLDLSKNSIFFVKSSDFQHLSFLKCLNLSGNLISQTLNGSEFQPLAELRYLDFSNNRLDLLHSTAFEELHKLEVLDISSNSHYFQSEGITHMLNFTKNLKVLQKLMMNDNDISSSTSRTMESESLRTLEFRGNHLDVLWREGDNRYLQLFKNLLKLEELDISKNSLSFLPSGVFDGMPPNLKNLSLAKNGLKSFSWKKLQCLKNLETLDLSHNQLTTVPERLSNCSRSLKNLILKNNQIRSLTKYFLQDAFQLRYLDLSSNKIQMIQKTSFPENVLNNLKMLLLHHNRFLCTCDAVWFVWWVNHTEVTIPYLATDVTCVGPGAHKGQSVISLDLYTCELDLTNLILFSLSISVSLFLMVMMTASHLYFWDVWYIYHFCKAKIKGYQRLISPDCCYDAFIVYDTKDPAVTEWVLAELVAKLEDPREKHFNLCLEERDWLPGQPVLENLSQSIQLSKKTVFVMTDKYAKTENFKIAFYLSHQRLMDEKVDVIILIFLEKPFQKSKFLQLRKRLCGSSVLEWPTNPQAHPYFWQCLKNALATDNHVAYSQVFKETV
In short: (§1)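 HEK-Blue cells overexpressing human TLR7, TLR8 or TLR9 (NF-κB/AP-1-driven SEAP) pre-treated 30 min at room temperature with compound (0.05 nM–50 μM), then stimulated with gardiquimod 7.5 μM (TLR7), R848 15.9 μM (TLR8) or ODN2006 5 nM (TLR9). SEAP read colorimetrically after 22 h at 37 °C; % inhibition calculated.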

human TLR9 = molecular target: T2, human TLR9 (Homo sapiens, UniProt Q9NR96); assay: TLR9 inhibition reporter assay (HEK-Blue cells, SEAP reporter, ODN2006 stimulation); conditions: HEK-Blue cells overexpressing human TLR9, SEAP reporter, ODN2006 5 nM
T2 construct: host or cells: HEK-Blue cells (HEK293-derived reporter line)
T2 sequence (Q9NR96 26-1032): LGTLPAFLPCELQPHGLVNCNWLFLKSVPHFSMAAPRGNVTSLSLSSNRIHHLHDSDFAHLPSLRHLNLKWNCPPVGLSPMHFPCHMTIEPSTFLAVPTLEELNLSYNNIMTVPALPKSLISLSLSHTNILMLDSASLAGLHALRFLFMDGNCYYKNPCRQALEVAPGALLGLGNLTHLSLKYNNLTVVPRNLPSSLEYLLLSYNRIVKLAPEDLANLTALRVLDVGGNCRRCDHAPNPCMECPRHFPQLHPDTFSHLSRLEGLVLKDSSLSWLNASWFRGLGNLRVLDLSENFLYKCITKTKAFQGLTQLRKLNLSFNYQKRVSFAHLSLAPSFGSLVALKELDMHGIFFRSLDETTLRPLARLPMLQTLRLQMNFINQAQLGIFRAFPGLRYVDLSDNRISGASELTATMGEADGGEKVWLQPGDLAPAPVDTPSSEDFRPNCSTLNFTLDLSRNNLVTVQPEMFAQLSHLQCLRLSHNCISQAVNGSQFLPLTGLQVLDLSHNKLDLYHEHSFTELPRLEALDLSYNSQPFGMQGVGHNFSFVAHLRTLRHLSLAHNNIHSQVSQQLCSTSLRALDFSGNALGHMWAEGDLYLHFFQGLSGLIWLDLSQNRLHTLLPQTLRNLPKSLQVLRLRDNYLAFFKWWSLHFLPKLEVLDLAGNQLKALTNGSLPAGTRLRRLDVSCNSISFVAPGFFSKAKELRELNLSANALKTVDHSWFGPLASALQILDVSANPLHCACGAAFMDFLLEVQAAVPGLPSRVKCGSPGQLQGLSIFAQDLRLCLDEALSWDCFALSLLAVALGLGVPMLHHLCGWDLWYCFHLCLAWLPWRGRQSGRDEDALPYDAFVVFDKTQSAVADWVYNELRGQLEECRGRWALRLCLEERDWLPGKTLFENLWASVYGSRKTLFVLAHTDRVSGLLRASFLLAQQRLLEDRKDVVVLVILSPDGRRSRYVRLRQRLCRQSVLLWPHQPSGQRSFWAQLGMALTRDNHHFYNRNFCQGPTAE
In short: as §1

human TLR8 = molecular target: T3, human TLR8 (Homo sapiens, UniProt Q9NR97); assay: TLR8 inhibition reporter assay (HEK-Blue cells, SEAP reporter, R848 stimulation); conditions: HEK-Blue cells overexpressing human TLR8, SEAP reporter, R848 15.9 μM
T3 construct: host or cells: HEK-Blue cells (HEK293-derived reporter line)
T3 sequence (Q9NR97 27-1041): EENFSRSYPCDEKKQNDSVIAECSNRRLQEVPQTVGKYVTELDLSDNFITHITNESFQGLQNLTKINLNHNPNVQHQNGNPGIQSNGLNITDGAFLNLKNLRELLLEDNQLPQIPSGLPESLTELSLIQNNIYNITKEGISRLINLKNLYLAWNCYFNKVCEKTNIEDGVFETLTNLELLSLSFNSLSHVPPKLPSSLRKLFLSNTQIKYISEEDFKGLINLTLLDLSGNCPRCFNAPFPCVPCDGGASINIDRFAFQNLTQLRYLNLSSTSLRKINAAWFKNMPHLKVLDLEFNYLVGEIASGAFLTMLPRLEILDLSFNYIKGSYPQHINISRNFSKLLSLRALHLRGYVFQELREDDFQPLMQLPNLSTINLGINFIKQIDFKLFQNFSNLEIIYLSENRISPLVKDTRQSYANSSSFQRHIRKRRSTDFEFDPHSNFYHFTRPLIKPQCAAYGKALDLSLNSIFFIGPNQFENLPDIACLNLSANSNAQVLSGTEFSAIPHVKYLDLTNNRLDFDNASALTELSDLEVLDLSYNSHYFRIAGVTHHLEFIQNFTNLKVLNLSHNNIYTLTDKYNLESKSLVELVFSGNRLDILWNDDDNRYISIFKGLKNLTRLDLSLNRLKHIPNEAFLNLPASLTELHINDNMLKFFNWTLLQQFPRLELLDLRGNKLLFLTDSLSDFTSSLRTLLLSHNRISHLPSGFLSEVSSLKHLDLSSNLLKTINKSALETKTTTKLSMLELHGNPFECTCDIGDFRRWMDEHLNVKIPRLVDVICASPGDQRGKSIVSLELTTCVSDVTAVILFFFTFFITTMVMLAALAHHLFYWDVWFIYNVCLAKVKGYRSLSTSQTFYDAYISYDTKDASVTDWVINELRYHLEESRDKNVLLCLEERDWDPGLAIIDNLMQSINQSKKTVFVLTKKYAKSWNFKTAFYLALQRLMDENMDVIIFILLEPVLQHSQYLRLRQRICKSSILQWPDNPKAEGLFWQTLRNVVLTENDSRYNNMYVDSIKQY
In short: as §1

Compound	IC50 (human TLR7)	IC50 (human TLR9)	IC50 (human TLR8)
CNC(=O)CN1CCC(c2ccc3[nH]c(-c4ccc(C#N)c5ncccc45)c(C(C)C)c3c2)CC1 [Example 371, 2-(4-(2-(8-cyanoquinolin-5-yl)-3-isopropyl-1H-indol-5-yl)piperidin-1-yl)-N-methylacetamide]	< 100 nM	1000 to 50000 nM	< 100 nM
CCCN1CCC(c2ccc3[nH]c(-c4cc(C)c5c(c4)ncn5C)c(C(C)C)c3c2)CC1 [Example 956, 5-(3-isopropyl-5-(1-propylpiperidin-4-yl)-1H-indol-2-yl)-1,7-dimethyl-1H-benzo[d]imidazole]	< 100 nM	100 to 1000 nM	100 to 1000 nM
Cc1c(-c2ccnc3[nH]cnc23)[nH]c2ccc(C3CCNCC3)cc12 [Example 60, 7-(3-methyl-5-(piperidin-4-yl)-1H-indol-2-yl)-3H-imidazo[4,5-b]pyridine]	< 100 nM	100 to 1000 nM	100 to 1000 nM
CCc1c(-c2ccnc3[nH]ncc23)[nH]c2ccc(C3CCN(Cc4cnn(C)c4)CC3)cc12 [Example 901, 4-(3-ethyl-5-(1-((1-methyl-1H-pyrazol-4-yl)methyl)piperidin-4-yl)-1H-indol-2-yl)-1H-pyrazolo[3,4-b]pyridine]	100 to 1000 nM	1000 to 50000 nM	< 100 nM
CNC(=O)CN1CCC(c2ccc3[nH]c(-c4cn(C)c5ncccc45)c(C(C)C)c3c2)CC1 [Example 293, 2-(4-(3-isopropyl-2-(1-methyl-1H-pyrrolo[2,3-b]pyridin-3-yl)-1H-indol-5-yl)piperidin-1-yl)-N-methylacetamide]	< 100 nM	1000 to 50000 nM	< 100 nM
CCCCc1nc(Cl)c(CN2CCC(c3ccc4[nH]c(-c5ccnc6[nH]ncc56)c(C(C)C)c4c3)CC2)[nH]1 [Example 896, 4-(5-(1-((2-butyl-4-chloro-1H-imidazol-5-yl)methyl)piperidin-4-yl)-3-isopropyl-1H-indol-2-yl)-1H-pyrazolo[3,4-b]pyridine]	100 to 1000 nM	1000 to 50000 nM	< 100 nM
CCc1c(-c2ccnc3[nH]ncc23)[nH]c2ccc(C3CCN(C(C)C)CC3)cc12 [Example 957, 4-(3-ethyl-5-(1-isopropylpiperidin-4-yl)-1H-indol-2-yl)-1H-pyrazolo[3,4-b]pyridine]	100 to 1000 nM	1000 to 50000 nM	< 100 nM
CC(C)c1c(-c2ccnc3c2ncn3C)[nH]c2ccc(C3CCNCC3)cc12 [Example 45, 7-(3-isopropyl-5-(piperidin-4-yl)-1H-indol-2-yl)-3-methyl-3H-imidazo[4,5-b]pyridine]	100 to 1000 nM	1000 to 50000 nM	100 to 1000 nM
CNC(=O)CN1CCC(c2ccc3[nH]c(-c4ccnc5[nH]ncc45)c(C(C)C)c3c2)CC1 [Example 276, 2-(4-(3-isopropyl-2-(1H-pyrazolo[3,4-b]pyridin-4-yl)-1H-indol-5-yl)piperidin-1-yl)-N-methylacetamide]	< 100 nM	1000 to 50000 nM	< 100 nM
Cc1nc2cc(-c3[nH]c4ccc(C5CCN(C(=O)CN(C)C)CC5)cc4c3C(C)C)cc(C)c2o1 [Example 491, 2-(dimethylamino)-1-(4-(2-(2,7-dimethylbenzo[d]oxazol-5-yl)-3-isopropyl-1H-indol-5-yl)piperidin-1-yl)ethan-1-one]	100 to 1000 nM	1000 to 50000 nM	1000 to 50000 nM
CCc1c(-c2ccnc3[nH]ccc23)[nH]c2ccc(C3CCN(C4CCN(CC)CC4)CC3)cc12 [Example 837, 4-(3-ethyl-5-(1′-ethyl-[1,4′-bipiperidin]-4-yl)-1H-indol-2-yl)-1H-pyrrolo[2,3-b]pyridine]	< 100 nM	100 to 1000 nM	< 100 nM
Cc1cc(-c2[nH]c3ccc(C4CCN(C(=O)CCN(C)C)CC4)cc3c2C(C)C)cn2nnnc12 [Example 620, 3-(dimethylamino)-1-(4-(3-isopropyl-2-(8-methyltetrazolo[1,5-a]pyridin-6-yl)-1H-indol-5-yl)piperidin-1-yl)propan-1-one]	< 100 nM	1000 to 50000 nM	< 100 nM
CC(C)c1c(-c2cn(C)c3ncccc23)[nH]c2ccc(C3CCN(Cc4ncn(C)n4)CC3)cc12 [Example 878, 3-(3-isopropyl-5-(1-((1-methyl-1H-1,2,4-triazol-3-yl)methyl)piperidin-4-yl)-1H-indol-2-yl)-1-methyl-1H-pyrrolo[2,3-b]pyridine]	< 100 nM	1000 to 50000 nM	< 100 nM
CC(C)c1c(-c2cn(C)c3ncccc23)[nH]c2ccc(C3CCNCC3)cc12 [Example 48, 3-(3-isopropyl-5-(piperidin-4-yl)-1H-indol-2-yl)-1-methyl-1H-pyrrolo[2,3-b]pyridine]	< 100 nM	1000 to 50000 nM	< 100 nM
CC(C)c1c(-c2cnc3ccnn3c2)[nH]c2ccc(C3CCNCC3)cc12 [Example 181, 6-(3-isopropyl-5-(piperidin-4-yl)-1H-indol-2-yl)pyrazolo[1,5-a]pyrimidine]	1000 to 50000 nM	1000 to 50000 nM	> 3130 nM
